These results are taken from PMC5121622, “Cytotoxic and genotoxic potential of food-borne nitriles in a liver in vitro model” (Scientific Reports, 2016).

Series [1] has as its system human liver cancer (HepG2) cells. Kind of series: WST-1 cytotoxicity assay in HepG2 cells. It counts as cell-based. The settings on record: for IC50: HepG2, 72 h treatment, WST-1 assay; for change in cell viability: HepG2, 72 h, 0.3 to 30 mM. How it is done: (§1) HepG2 cells were purchased from the German Collection of Microorganisms and Cell Cultures (DSMZ, Braunschweig, Germany). HepG2 cells which constitutively express human CYP2E1 (E47 cells, HepG2-CYP2E1) and control HepG2 cells transfected with empty vector (C34 cells, HepG2- vector), originally established by Wu and Cederbaum[27], were kindly provided by C. Hellerbrand (University Medical Center Regensburg, Germany). The cells were cultured in low glucose Dulbecco’s modified eagle medium supplemented with 15% fetal calf serum and 1% Pen/Strep in an atmosphere with 5% CO2 at 37 °C and 95% air humidity.
(§2) Cytotoxicity was determined with the WST-1 assay (Roche Diagnostics Deutschland GmbH, Mannheim, Germany). The assay is based on the ability of viable cells to cleave the tetrazolium salt WST-1 to formazan by their mitochondrial succinate-tetrazolium-reductase system. Cells were cultured at an initial density of 5000 cells/well in 96-well plates for 48 h. Then, cells were treated with the nitriles (0.3 to 30 mM, solved in distilled water) for 72 h. As positive control, 0.01% Triton X-100 was used. Following compound exposure and incubation, the WST 1 assay was performed according to the manufacturer’s instructions.
The median growth inhibitory concentration (IC50) for compound cytotoxicity was calculated using Graphpad Prism 5.0 software (La Jolla, CA). After logarithmic transformation, IC50 values were calculated with equation 1: […]
For orientation: Tetrazolium assays rely on reduction of a dye to a coloured formazan, in cell work by metabolically active cells.

For a further series, the system named is quinone reductase. The settings on record: cited from earlier work.
In series [2] the test system is HepG2 cells. Set-up: method as in Lamy et al. (2009). To be noted: HepG2, Comet assay and micronucleus test; ref Lamy et al. (2009); cited from earlier work.
Series [3] concerns HepG2-CYP2E1 cells. As to the kind of experiment: Comet assay in CYP2E1 transfected HepG2 and vector cells. It counts as cell-based, human. To be noted: 24 h. As for the experimental part: as §1
(§3) The single cell gel electrophoresis assay also known as Comet assay was carried out as described earlier with slight modifications. The percent tail DNA and the Olive Tail Moment (OTM) were calculated as indicators of DNA damage. For each sample, 102 systematically screened cells were evaluated. Briefly, HepG2 cells were seeded onto well plates. After 48 h of growth, the cells were exposed to the nitriles or ITC for 24 h. As positive control 50 μM B(α)P and as solvent control distilled water or 0.1% DMSO was used. To analyze the repair capacity of HepG2 cells, the test substances were removed after 24 h and incubated for another 24 h before the assay was terminated.

Series [4] concerns activated human T lymphocytes. More on the design: method as in PMID 27161402. To be noted: cited from earlier work.
The subject of series [5] is primary murine hepatocytes. As to the kind of experiment: WST-1 cell viability in primary murine hepatocytes. It counts as cell-based, mouse. The settings on record: 72 h. How it is done:
Murine hepatocytes were obtained from 8–16 week-old, male C57BL6 mice (Charles River Laboratory, Sulzfeld, Germany) as described elsewhere. The institutional and national guidelines for the care and use of animals were followed, and all experimental procedures were approved by the institutional Animal Care and Use Committee at the University of Freiburg according to § 8.I of the Animal Welfare Act. 2–2.2 × 10^5 cells were plated in 24 well plates. The cells were left undisturbed for 4 h in a 5% CO2 atmosphere at 37 °C and then the medium was changed to serum free Williams’ Medium E supplemented with 100 nM dexamethasone. Within 24 h the cells were exposed to the test compounds and controls for 72 h.
as §2

Series [6] has as its system HepG2 cells. As to the kind of experiment: Comet assay (DNA strand breaks) in HepG2 cells. It counts as cell-based, human. The settings on record: HepG2, 24 h; for concentration with significant increase in DNA strand breaks: Olive Tail Moment and percent tail DNA. How it is done: as §3
The next series relates to Hepa1c1c7 cells. To be noted: Hepa1c1c7, 5 mM, 72 h; cited from earlier work.
For series [7], the system named is HepG2-CYP2E1 cells. As to the kind of experiment: WST-1 cytotoxicity assay in CYP2E1-overexpressing HepG2 cells versus vector control cells. Format: cell-based, human. The settings on record: 10 mM, 72 h. As for the experimental part:
as §1, §2

Another series relates to UM-2BB cells. Set-up: method as in Lui et al. (2003). To be noted: MTT-assay, ref Lui et al. (2003); cited from earlier work.
The mark [8] stands for this setting: Homo sapiens, read-out: IC50 (median growth inhibitory concentration).

Entries after “also recorded” stand apart in the source; their conditions may differ. Read-outs that look alike come from different tables or passages of the source.

With `N#CCCc1ccccc1` [2-phenylethyl-CN, 3-phenylpropanenitrile], the IC50 in [1] (setting [8]) worked out at 18.2 mM.
Regarding `C[S+]([O-])CCCCN=C=S` (centres unmarked) [Sulforaphane, 4-(methylsulfinyl)butyl ITC], in the series on quinone reductase, the “concentration inducing quinone reductase” value is 2.5 µM and the “maximum induction of quinone reductase” value is listed as 3.1 fold.
As for `CSCCCCCN=C=S` [5-MTP-ITC, 5-(methylthio)pentyl ITC], the “concentration inducing DNA damage and mutagenicity” value in the series with HepG2 cells [2] is listed as “exceeding 1 μM”.
Regarding `C[S+]([O-])CCCCC#N` (centres unmarked) [sulforaphane nitrile, 5-(methylsulfinyl)pentylnitrile], the “concentration reaching a similar induction of quinone reductase as sulforaphane” value with quinone reductase is 2 mM.
With `CSCCCCCCC#N` [6-MTH-CN, 7-(methylthio)heptylnitrile], in [1] (setting [8]), the IC50 is 8.15 mM.
Regarding `N#CCc1ccccc1` [benzyl-CN, phenylacetonitrile], in the series with HepG2-CYP2E1 cells [3], the “concentration with significant increment of DNA strand breaks by CYP2E1-overexpression as compared to vector control cells” value is no less than 3 µM. Further, the “influence on PGE2 release” value in series [4] (1 mM) was “did not influence PGE2 release”. Further, in series [1] (setting [8]), the IC50 was 19.9 mM. The viability of hepatocytes result in series [5] is given as “significantly decreased the viability of hepatocytes in a concentration-dependent manner”. For the same compound, in the series with HepG2 cells [6], the “DNA strand breaks, concentration dependence” value is given as “concentration-dependent increase in DNA strand breaks” and the “concentration with significant increase in DNA strand breaks” value is no less than 3 µM. In addition, the “DNA damage compared with benzyl ITC” value in the series on HepG2 cells [6] (3 μM) was “comparable with the effect of benzyl ITC at the same concentration; also recorded: comparable with the effect of benzyl-ITC in the same concentration”.
On to `C=CCC#N` [allyl-CN, 3-butenenitrile], for which the “change in cell viability” value in series [1] was “did not result in significant changes in cell viability”. For the same compound, the viability of hepatocytes entry in series [5] is recorded as “significantly decreased the viability of hepatocytes in a concentration-dependent manner”.
Regarding `C=CC(O)CC#N` (centres unmarked) [crambene, 3-hydroxy-4-pentenenitrile], in the series with Hepa1c1c7 cells, the “cell proliferation diminished by” value is given as 76% and the “cell viability reduced by” value was 12%.
`CSCCCC#N` [3-MTP-CN, 4-(methylthio)butylnitrile]: in [1] (setting [8]), the IC50 was found to be 19.5 mM.
Turning to `CSCCCCC#N` [4-MTB-CN, 5-(methylthio)pentylnitrile], the “difference in cytotoxicity between CYP2E1-overexpressing and vector control cells” value in the series with HepG2-CYP2E1 cells [7] is given as “significant difference in cytotoxicity”. Besides, the IC50 in series [1] (setting [8]) came out at 17.9 mM. Besides, in [5], the “concentration at which a viability loss was detected” value amounted to 30000 µM. In the series with HepG2 cells [6], the “DNA strand breaks, concentration dependence” value is recorded as “concentration-dependent increase in DNA strand breaks” and the “concentration with significant increase in DNA strand breaks” value is no less than 3 µM.
In the case of `CSCCCCCC#N` [5-MTP-CN, 6-(methylthio)hexylnitrile], in [1] (setting [8]), the IC50 came out at 12.2 mM.
As to `C=CCCCC#N` [4-pent-CN, 5-hexenenitrile], the “change in cell viability” value in [1] is listed as “did not result in significant changes in cell viability”.
In the case of `S=C=NCc1ccccc1` [benzyl-ITC, benzyl ITC, reference compound], the IC50 in the series with UM-2BB cells is 0.017 mM; in series [1] (read-out: IC50), 0.0158 mM. Also, the “concentration with strong interference with pro-inflammatory response including PGE2 release” value in [4] (activated human T lymphocytes) was no less than 3 µM. The “cytotoxic potency relative to the nitriles” value in series [1] (HepG2, ITC versus corresponding nitrile) is 1000 fold.
Turning to `C=CCCC#N` [3-but-CN, 4-pentenenitrile], in series [1], the “change in cell viability” value is recorded as “did not result in significant changes in cell viability”. Moreover, the viability of hepatocytes result in series [5] was “significantly decreased the viability of hepatocytes in a concentration-dependent manner”.
For the compound `CSCCCN=C=S` [3-MTP-ITC, 3-(methylthio)propyl ITC], the “concentration inducing DNA damage and mutagenicity” value in the series with HepG2 cells [2] is “exceeding 1 μM”.
